The text below walks through data of article PMC3517300 (Journal of neurochemistry, 2012).

Assay [1] has as its target human DAT (LLC-PK-hDAT cells) (Homo sapiens, UniProt Q01959). Nature of the assay: AMPH-induced [^3H]DA efflux in LLC-PK-hDAT cells. The class given is cell-based.
The next assay deals with DAT. Conditions: raft-enriched fractions vs whole cells; ref Foster et al. 2008; cited from earlier work.
Assay [2] addresses human dopamine transporter (DAT WT) (Homo sapiens, UniProt Q01959). The assay is described as follows: AMPH-induced DA efflux by RDEV, HEK 293-hDAT. The class given is cell-based. The conditions noted are these: for effect on corrected efflux Vmax / effect on Km and Vmax of AMPH-induced DA efflux (RDEV): WT; for effect on corrected efflux Vmax: repletion with 200 µM sterol after 5.0 mM mβCD, or 25 µg/ml nystatin; for effect on Km and Vmax of AMPH-induced DA efflux (RDEV): 5.0 mM mβCD or 25 µg/ml nystatin, 10 µM AMPH.

Assay [3] relates to hDAT surface expression in HEK-293 cells. Nature of the assay: Surface biotinylation and immunoblot of DAT. It counts as cell-based, human. The conditions noted are these: treatment with mβCD, nystatin, or repletion with cholesterol or desmosterol.
For assay [4], the system named is DAT in lipid rafts of HEK-293 hDAT cells. Nature of the assay: Sucrose density fractionation, DAT association with lipid rafts. It counts as cell-based, human. The conditions noted are these: 1% Brij; depletion/chelation or repletion of mβCD depleted cells.
Assay [5] deals with cholesterol-depleted HuH7 hepatoma cells or hippocampal membranes. Conditions: within 1 hr; ref Vainio et al. 2006; Singh et al. 2009; cited from earlier work.
Assay [6] addresses T1, W84L DAT mutant (Homo sapiens, UniProt Q01959, W84L).
T1 sequence (Q01959 1-620 W84L): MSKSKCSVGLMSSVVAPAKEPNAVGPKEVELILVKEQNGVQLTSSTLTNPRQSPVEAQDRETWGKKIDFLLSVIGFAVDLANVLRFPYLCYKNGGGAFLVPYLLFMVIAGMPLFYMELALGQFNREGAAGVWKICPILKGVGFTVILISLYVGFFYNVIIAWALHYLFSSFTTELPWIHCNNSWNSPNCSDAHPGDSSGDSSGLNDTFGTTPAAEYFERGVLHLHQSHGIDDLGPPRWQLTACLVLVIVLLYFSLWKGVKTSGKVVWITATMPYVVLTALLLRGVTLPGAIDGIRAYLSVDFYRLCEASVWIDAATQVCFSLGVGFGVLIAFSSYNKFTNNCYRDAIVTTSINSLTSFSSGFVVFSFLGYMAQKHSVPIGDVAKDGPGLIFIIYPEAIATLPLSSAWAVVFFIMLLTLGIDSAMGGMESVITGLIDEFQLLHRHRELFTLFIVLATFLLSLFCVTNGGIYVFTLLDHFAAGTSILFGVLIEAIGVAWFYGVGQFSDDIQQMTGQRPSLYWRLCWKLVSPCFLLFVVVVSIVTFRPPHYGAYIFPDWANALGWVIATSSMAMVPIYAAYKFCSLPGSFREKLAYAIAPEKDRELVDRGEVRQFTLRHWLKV
Nature of the assay: AMPH-induced DA efflux by RDEV, W84L hDAT-HEK 293 cells. Conditions: for effect on AMPH-induced DA efflux Km, Vmax (RDEV): 2.5 mM mβCD or 25 µg/ml nystatin, 10 µM AMPH. It counts as cell-based.

For assay [7], the system named is unesterified cholesterol in HEK 293-hDAT cells. The assay is described as follows: Cholesterol quantification. The class given is cell-based, human. The conditions noted are these: for reduction of cholesterol content compared with untreated cells: 30 min, 37°C.
Assay [8] deals with T1, W84L DAT mutant. The assay is described as follows: DA uptake by RDEV, W84L hDAT-HEK 293 cells. The class given is cell-based. Conditions: 2.5 mM mβCD or 25 µg/ml nystatin.

Sequence of human DAT (LLC-PK-hDAT cells) (Q01959 whole entry): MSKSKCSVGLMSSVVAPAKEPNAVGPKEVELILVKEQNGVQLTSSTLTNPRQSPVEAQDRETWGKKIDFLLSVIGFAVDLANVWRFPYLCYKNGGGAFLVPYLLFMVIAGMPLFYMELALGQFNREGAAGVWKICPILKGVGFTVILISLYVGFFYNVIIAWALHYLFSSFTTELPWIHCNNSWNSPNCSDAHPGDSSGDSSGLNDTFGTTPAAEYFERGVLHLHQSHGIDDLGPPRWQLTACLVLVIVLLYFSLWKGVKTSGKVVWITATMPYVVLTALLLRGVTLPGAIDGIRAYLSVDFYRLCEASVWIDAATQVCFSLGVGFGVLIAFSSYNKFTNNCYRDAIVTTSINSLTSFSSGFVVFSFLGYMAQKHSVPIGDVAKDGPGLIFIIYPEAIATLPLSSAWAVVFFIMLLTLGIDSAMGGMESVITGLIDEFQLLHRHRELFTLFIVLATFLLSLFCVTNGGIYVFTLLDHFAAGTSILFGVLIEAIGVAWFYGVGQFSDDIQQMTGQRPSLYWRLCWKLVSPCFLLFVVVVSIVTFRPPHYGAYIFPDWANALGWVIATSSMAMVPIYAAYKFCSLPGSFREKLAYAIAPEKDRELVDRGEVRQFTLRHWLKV
Sequence of human dopamine transporter (DAT WT) (Q01959 whole entry): as above

On to `C[C@H](N)Cc1ccccc1` [AMPH, dextroamphetamine], for which the “[^3H]DA efflux over basal efflux” value in [1] (10 µM AMPH, control cells, 5 min, 25°C) was ~ 144%.

Consider `NCCc1ccc(O)c(O)c1` [DA, dopamine], for which the “IC50 of DA competing for [^3H]CFT binding, rafts vs whole cells” value in the assay with DAT is “two-fold higher”.

With `CC(C)CCC[C@@H](C)[C@H]1CC[C@H]2[C@@H]3CC=C4C[C@@H](O)CC[C@]4(C)[C@H]3CC[C@]12C` [cholesterol], the “effect on corrected efflux Vmax” value in [2] is given as “indistinguishable from control values”. Also, in assay [3], the “changes in levels of DAT (total lysates and biotinylated surface fraction)” value was “no significant changes”. Also, the “DAT distribution across sucrose gradient fractions (raft association)” value in [4] was “restored DAT association with low buoyant density fractions”.

With `CC(C)=CCC[C@@H](C)[C@H]1CC[C@H]2[C@@H]3CC=C4C[C@@H](O)CC[C@]4(C)[C@H]3CC[C@]12C` [desmosterol], the “increase in cholesterol after replenishment with desmosterol” value in assay [5] is recorded as at most 10%. Besides, the “effect on corrected efflux Vmax” value in assay [2] is recorded as “indistinguishable from control values”. Also, in assay [3], the “changes in levels of DAT (total lysates and biotinylated surface fraction)” value is given as “no significant changes”. Further, the “DAT distribution across sucrose gradient fractions (raft association)” value in assay [4] is “inefficient at restoring rafts”.

In the case of `C[C@@H]1[C@H](O)[C@@H](C)/C=C/C=C/CC/C=C/C=C/C=C/C=C/C(O[C@H]2O[C@H](C)[C@@H](O)[C@H](N)[C@@H]2O)CC2O[C@](O)(CC(O)C(O)CCC(O)CC(O)CC(O)CC(=O)O[C@H]1C)CC(O)C2C(=O)O` (some centres unmarked) [nystatin], the “effect on AMPH-induced DA efflux Km, Vmax (RDEV)” value on W84L DAT mutant [6] is on record as “did not affect”. For the same molecule, in assay [1] (nystatin treated cells, 10 µM AMPH), the “AMPH-induced [^3H]DA efflux over basal levels” value came out at 150%. For the same molecule, in assay [7] (25 µg/ml), the “change of overall content of cholesterol” value is “did not change”. Also, in assay [2], the “effect on Km and Vmax of AMPH-induced DA efflux (RDEV)” value is given as “no effect”; the “effect on corrected efflux Vmax” value is listed as “no significant change”. Moreover, the “changes in levels of DAT (total lysates and biotinylated surface fraction)” value in assay [3] is listed as “no significant changes”. For the same molecule, the “effect on DA uptake Vmax and Km (RDEV)” value at W84L DAT mutant [8] is “did not significantly change Vmax or Km”. Also, in assay [4], the “DAT distribution across sucrose gradient fractions (raft association)” value was “significant shift of DAT out of raft fractions 3–4 into denser fractions 7 and up”.

As to methyl-β-cyclodextrin [mβCD], the “effect on Vmax ratio (incorporating the uptake correction)” value on W84L DAT mutant [6] (2.5 mM mβCD) is “rescued to that of DAT WT control”. Further, the “effect on AMPH-induced DA efflux Km, Vmax (RDEV)” value at W84L DAT mutant [6] was “partial rescue of efflux Vmax”. Moreover, the “AMPH-induced [^3H]DA efflux over basal levels” value in assay [1] (2.5 mM mβCD, 10 µM AMPH) came out at 122%; in assay [1] (5.0 mM mβCD, 10 µM AMPH) it was 115%. The “loss in efflux function” value in assay [1] (2.5 and 5.0 mM mβCD) is given as ~ 20%. For the same molecule, the “reduction of cholesterol content compared with untreated cells” value is listed as 39% in [7] (2.5 mM) and 63% in assay [7] (5.0 mM). In addition, in assay [2] (5.0 mM mβCD vs control, 37°C), the “reduction in reverse transport (corrected efflux Vmax)” value is on record as ~ 40%. For the same molecule, in assay [2], the “effect on Km and Vmax of AMPH-induced DA efflux (RDEV)” value is listed as “large reduction”. In addition, the “changes in levels of DAT (total lysates and biotinylated surface fraction)” value in [3] is recorded as “no significant changes”. The “effect on DA uptake Vmax and Km (RDEV)” value on W84L DAT mutant [8] was “enhanced uptake Vmax without altering Km”. Moreover, in [4], the “DAT distribution across sucrose gradient fractions (raft association)” value was “significant shift of DAT out of raft fractions 3–4 into denser fractions 7 and up”.
